# Source: US20040242587A1, “Pyrrolo[1,2-b]pyridazine compounds” (Pfizer Inc, priority 2003, published 2004)
row,melting point,SMILES
1,193.2 to 196.4 °C,"Cc1cc(N2CCC3(CC2)OCCO3)c2cc(C)c(-c3ccc(Cl)cc3Cl)n2n1 [Example 8, 8-[7-(2,4-Dichlorophenyl)-2,6-dimethylpyrrolo[1,2-b]pyridazin-4-yl]-1,4-dioxa-8-azaspiro[4,5]decane]"
2,> 212 °C (dec.),"Cc1cc(N2CC=C(C(N)=O)CC2)c2cc(C)c(-c3ccc(Cl)cc3Cl)n2n1 [Example 11, 1-[7-(2,4-Dichlorophenyl)-2,6-dimethylpyrrolo[1,2-b]pyridazin-4-yl]-1,2,3,6-tetrahydropyridine-4-carboxamide]"
3,169.7 to 171.3 °C,"Cc1cc(N2CCC(=O)CC2)c2cc(C)c(-c3ccc(Cl)cc3Cl)n2n1 [Example 9, 1-[7-(2,4-Dichlorophenyl)-2,6-dimethylpyrrolo[1,2-b]pyridazin-4-yl]piperidin-4-one]"
4,105 to 110 °C,"Cc1cc(N[C@@H]2CN(C(=O)OCc3ccccc3)C[C@@H]2O)c2cc(C)c(-c3ccc(Cl)cc3Cl)n2n1 [Example 1, Benzyl (3R,4S)-3-{[7-(2,4-dichlorophenyl)-2.6-dimethylpyrrolo[1,2-b]pyridazin-4-yl]amino}-4-hydroxypvrrolidine-1-carboxylate]"
